Measured values: ChEMBL document CHEMBL1201862, “PubChem BioAssay data set” (2004)
Counter-ions that a name gives are not always drawn.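 Step 1: Grow cells in 96-well plates. Step 2: Expose to compound for 48 hours at 5 concentrations. Step 3: Interpolate endpoints linearly; if unreached, use highest concentration. GI50 = concentration required for 50% inhibition of growth.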 The source made the active and inactive calls. Cut-off read from the data, not from the text of the source: active = GI50 up to about 1.1 µM and inactive = higher.

How the values were obtained:
Experiment in all cases: NCI-60 cell line screen, 48 h
SK-MEL-28 = test system: SK-MEL-28
SNB-78 = test system: SNB-78
HOP-18 = test system: HOP-18
IGROV-1 = test system: IGROV-1
UO-31 = test system: UO-31
NCI-H460 = test system: NCI-H460
SK-MEL-2 = test system: SK-MEL-2
KM-20L2 = test system: KM-20L2
OVCAR-8 = test system: OVCAR-8
CCRF-CEM = test system: CCRF-CEM
DMS-114 = test system: DMS-114
SNB-19 = test system: SNB-19
U-251 = test system: U-251
LOX IMVI = test system: LOX IMVI
HT-29 = test system: HT-29
DMS-273 = test system: DMS-273
SNB-75 = test system: SNB-75
UACC-257 = test system: UACC-257
SF-295 = test system: SF-295
SF-268 = test system: SF-268
ACHN = test system: ACHN
HCT-116 = test system: HCT-116
HOP-62 = test system: HOP-62
LXFL 529 = test system: LXFL 529
OVCAR-5 = test system: OVCAR-5
Malme-3M = test system: Malme-3M
NCI-H23 = test system: NCI-H23
DLD-1 = test system: DLD-1
RPMI-8226 = test system: RPMI-8226
NCI-H522 = test system: NCI-H522
SR = test system: SR
KM12 = test system: KM12
RXF 393 = test system: RXF 393
A549 = test system: A549
NCI-H226 = test system: NCI-H226
TK-10 = test system: TK-10
MOLT-4 = test system: MOLT-4
HCT-15 = test system: HCT-15
SK-OV-3 = test system: SK-OV-3
SK-MEL-5 = test system: SK-MEL-5
COLO 205 = test system: COLO 205
CAKI-1 = test system: CAKI-1
M19-MEL = test system: M19-MEL
K562 = test system: K562
OVCAR-4 = test system: OVCAR-4
SW-620 = test system: SW-620
XF498 = test system: XF498
UACC-62 = test system: UACC-62
SN12C = test system: SN12C
HL-60 = test system: HL-60
786-0 = test system: 786-0
OVCAR-3 = test system: OVCAR-3
A498 = test system: A498
HCC 2998 = test system: HCC 2998
M14 = test system: M14
SF-539 = test system: SF-539
HOP-92 = test system: HOP-92
EKVX = test system: EKVX
T47D = test system: T47D

C(=C\c1ccc2ccccc2c1Nc1ccccc1)/c1ccccc1 was tested, and the GI50 (SK-MEL-28) was 46 µM (inactive), the GI50 (SNB-78) was 38.6 µM (inactive) and the GI50 (HOP-18) was 26.4 µM (inactive). The GI50 (IGROV-1) was 31 µM (inactive), the GI50 (UO-31) was 29.8 µM (inactive) and the GI50 (NCI-H460) was 27.9 µM (inactive). For the same molecule, the GI50 (SK-MEL-2) was > 60.5 µM (inactive), the GI50 (KM-20L2) was 45.1 µM (inactive) and the GI50 (OVCAR-8) was 22 µM (inactive). The GI50 (CCRF-CEM) was 11.9 µM (inactive), the GI50 (DMS-114) was 38.8 µM (inactive) and the GI50 (SNB-19) was 28 µM (inactive). The GI50 (U-251) was 25.9 µM (inactive), the GI50 (LOX IMVI) was > 66.4 µM (inactive) and the GI50 (HT-29) was 29.6 µM (inactive). For the same molecule, the GI50 (DMS-273) was 32.7 µM (inactive), the GI50 (SNB-75) was 15.7 µM (inactive) and the GI50 (UACC-257) was > 75 µM (inactive). The GI50 (SF-295) was 41.9 µM (inactive), the GI50 (SF-268) was 36.2 µM (inactive) and the GI50 (ACHN) was 20.6 µM (inactive). For the same molecule, the GI50 (HCT-116) was 17.8 µM (inactive), the GI50 (HOP-62) was 20.1 µM (inactive) and the GI50 (LXFL 529) was > 73.1 µM (inactive). The GI50 (OVCAR-5) was > 100 µM (inactive), the GI50 (Malme-3M) was 33.2 µM (inactive) and the GI50 (NCI-H23) was 19.9 µM (inactive). For the same molecule, the GI50 (DLD-1) was 17.3 µM (inactive), the GI50 (RPMI-8226) was 25.1 µM (inactive) and the GI50 (NCI-H522) was 41.6 µM (inactive). The GI50 (SR) was 15.2 µM (inactive), the GI50 (KM12) was 51.3 µM (inactive) and the GI50 (RXF 393) was 8.22 µM (inactive). For the same molecule, the GI50 (A549) was 49.3 µM (inactive), the GI50 (NCI-H226) was 33.2 µM (inactive) and the GI50 (TK-10) was 44.5 µM (inactive). For the same molecule, the GI50 (MOLT-4) was 15.2 µM (inactive), the GI50 (HCT-15) was > 100 µM and the GI50 (SK-OV-3) was 29.8 µM (inactive). The GI50 (SK-MEL-5) was 78.3 µM (inactive), the GI50 (COLO 205) was > 71.3 µM (inactive) and the GI50 (CAKI-1) was 23.2 µM (inactive). The GI50 (M19-MEL) was > 92.7 µM (inactive), the GI50 (K562) was 11.9 µM (inactive) and the GI50 (OVCAR-4) was 8.15 µM (inactive). For the same molecule, the GI50 (SW-620) was 60.3 µM (inactive), the GI50 (XF498) was 18.4 µM (inactive) and the GI50 (UACC-62) was 51.9 µM (inactive). For the same molecule, the GI50 (SN12C) was 33.6 µM (inactive), the GI50 (HL-60) was > 100 µM (inactive) and the GI50 (786-0) was 17 µM (inactive). The GI50 (OVCAR-3) was 22.4 µM (inactive), the GI50 (A498) was 18.3 µM (inactive) and the GI50 (HCC 2998) was > 70.5 µM (inactive). The GI50 (M14) was 18.7 µM (inactive), the GI50 (SF-539) was 32.2 µM (inactive) and the GI50 (HOP-92) was 18.2 µM (inactive). The GI50 (EKVX) was > 100 µM (inactive).

In the case of O=c1[nH]cnc(NC2C=C(CO)C(O)C2O)c1[N+](=O)[O-] (configuration not stated), the GI50 (SK-MEL-28) is reported as > 100 µM (inactive), the GI50 (SNB-78) is reported as > 100 µM (inactive) and the GI50 (HOP-18) is reported as > 100 µM (inactive). The GI50 (IGROV-1) was > 100 µM (inactive), the GI50 (UO-31) was > 100 µM (inactive) and the GI50 (NCI-H460) was > 40.1 µM (inactive). The GI50 (SK-MEL-2) was > 100 µM (inactive), the GI50 (KM-20L2) was > 100 µM (inactive) and the GI50 (OVCAR-8) was > 100 µM (inactive). For the same molecule, the GI50 (CCRF-CEM) was > 71.1 µM (inactive), the GI50 (DMS-114) was > 51.3 µM (inactive) and the GI50 (SNB-19) was > 100 µM (inactive). The GI50 (U-251) was > 63.5 µM (inactive), the GI50 (LOX IMVI) was > 41.2 µM (inactive) and the GI50 (HT-29) was > 100 µM (inactive). The GI50 (DMS-273) was > 47.2 µM (inactive), the GI50 (SNB-75) was > 100 µM (inactive) and the GI50 (UACC-257) was > 100 µM (inactive). For the same molecule, the GI50 (SF-295) was > 100 µM (inactive), the GI50 (SF-268) was > 100 µM (inactive) and the GI50 (ACHN) was > 100 µM (inactive). For the same molecule, the GI50 (HCT-116) was > 37.7 µM (inactive), the GI50 (HOP-62) was > 100 µM (inactive) and the GI50 (LXFL 529) was > 100 µM (inactive). The GI50 (OVCAR-5) was > 100 µM (inactive), the GI50 (Malme-3M) was > 100 µM (inactive) and the GI50 (NCI-H23) was > 100 µM (inactive). For the same molecule, the GI50 (DLD-1) was > 58.6 µM (inactive), the GI50 (RPMI-8226) was > 45.9 µM (inactive) and the GI50 (NCI-H522) was > 100 µM (inactive). The GI50 (SR) was > 100 µM (inactive), the GI50 (KM12) was > 100 µM (inactive) and the GI50 (RXF 393) was > 100 µM (inactive). The GI50 (A549) was > 83.2 µM (inactive), the GI50 (NCI-H226) was > 100 µM (inactive) and the GI50 (TK-10) was > 100 µM (inactive). For the same molecule, the GI50 (MOLT-4) was > 100 µM (inactive), the GI50 (HCT-15) was > 40.3 µM and the GI50 (SK-OV-3) was > 100 µM (inactive). For the same molecule, the GI50 (SK-MEL-5) was > 100 µM (inactive), the GI50 (COLO 205) was > 62.7 µM (inactive) and the GI50 (CAKI-1) was > 100 µM (inactive). The GI50 (M19-MEL) was > 76.6 µM (inactive), the GI50 (K562) was > 100 µM (inactive) and the GI50 (OVCAR-4) was > 100 µM (inactive). The GI50 (SW-620) was > 43.2 µM (inactive), the GI50 (XF498) was > 100 µM (inactive) and the GI50 (UACC-62) was > 100 µM (inactive). The GI50 (SN12C) was > 100 µM (inactive), the GI50 (HL-60) was > 37.2 µM (inactive) and the GI50 (786-0) was > 46.2 µM (inactive). The GI50 (OVCAR-3) was > 100 µM (inactive), the GI50 (A498) was > 100 µM (inactive) and the GI50 (HCC 2998) was > 100 µM (inactive). The GI50 (M14) was > 100 µM (inactive), the GI50 (SF-539) was > 100 µM (inactive) and the GI50 (HOP-92) was > 100 µM (inactive). The GI50 (EKVX) was > 100 µM (inactive).

CC[C@]1(O)C[C@H]2CN(CCc3c([nH]c4ccccc34)[C@@](C(=O)OC)(c3cc4c(cc3OC)N(C=O)[C@H]3[C@@](O)(C(=O)OC)[C@H](OC(C)=O)[C@]5(CC)C=CCN6CC[C@]43[C@@H]65)C2)C1 [VINCRISTINE SULFATE] was tested, and the GI50 (SK-MEL-28) was 1.31 µM (inactive), the GI50 (T47D) was 175 µM (inactive) and the GI50 (SNB-78) was 0.163 µM (active). The GI50 (HOP-18) was 20.8 µM (inactive), the GI50 (UO-31) was 2.1 µM (inactive) and the GI50 (NCI-H460) was 0.105 µM (active). For the same molecule, the GI50 (SK-MEL-2) was 0.132 µM (active), the GI50 (KM-20L2) was 0.106 µM (active) and the GI50 (CCRF-CEM) was 0.131 µM (active). The GI50 (DMS-114) was 0.121 µM (active), the GI50 (SNB-19) was 0.131 µM (active) and the GI50 (U-251) was 0.132 µM (active). For the same molecule, the GI50 (DMS-273) was 0.1 µM (active), the GI50 (SNB-75) was 0.43 µM (active) and the GI50 (SF-268) was 0.172 µM (active). For the same molecule, the GI50 (ACHN) was 0.176 µM (active), the GI50 (HCT-116) was 0.132 µM (active) and the GI50 (HOP-62) was 0.225 µM (active). The GI50 (LXFL 529) was 0.1 µM (active), the GI50 (OVCAR-5) was 22.2 µM (inactive) and the GI50 (Malme-3M) was 0.333 µM (active). For the same molecule, the GI50 (NCI-H23) was 0.112 µM (active), the GI50 (DLD-1) was 0.106 µM (active) and the GI50 (NCI-H522) was 0.119 µM (active). The GI50 (SR) was 0.1 µM (active), the GI50 (RXF 393) was 0.161 µM (active) and the GI50 (HCT-15) was 0.137 µM. The GI50 (SK-OV-3) was 0.288 µM (active), the GI50 (COLO 205) was 0.133 µM (active) and the GI50 (CAKI-1) was 0.14 µM (active). For the same molecule, the GI50 (M19-MEL) was 0.142 µM (active), the GI50 (XF498) was 0.135 µM (active) and the GI50 (OVCAR-3) was 0.125 µM (active). The GI50 (A498) was 0.126 µM (active), the GI50 (HOP-92) was 0.137 µM (active) and the GI50 (EKVX) was 2.36 µM (inactive).
